Source: patent US10881749B2, “Probes and methods of imaging a bacterial infection” (The Board of Trustees of the Leland Stanford Junior …, priority 2015, dated 2021)

Tests used:
E. coli [1] = assay: Uptake of tracer in E. coli bacterial culture, with maltose competition; type: cell-based, Escherichia coli; details: for blocking of uptake in E. coli by co-incubation with cold maltose: co-incubation with 1 mM of cold maltose, p<0.0003; for accumulation (uptake) of tracer in E. coli over time: in vitro bacterial culture
Protocol: FIG. 2.1 is a graph showing uptake of 6″-[^18F]fluoromaltotriose in vitro in E coli at 15 minutes, 30 minutes, and 30 minutes with 1 mM of maltose.
6″-[^18F]-fluoromaltotriose (FIG. 1.1B) was synthesized. The uptake of 6″-[^18F]-fluoromaltotriose was evaluated in E. coli. […] The uptake in E. coli could also be blocked by a co-incubation with 1 mM of cold maltose (98% blocking, p<0.0003), the natural substrate of the transporter, confirming that the tracer was a substrate of the bacterial maltose transporter. 10^8 colony-forming units (CFU) of E. coli was then inoculated in the right thigh muscle of nude mice (n=4). 24 h later, 200 uCi of the 6″-[^18F]-fluoromaltotriose was administered via tail vein and dynamic PET/CT scans were obtained over the course of one hour. […] The route of clearance of the tracer is renal which makes it suitable for clinical translation.
In regard to FIG. 5.1A, 6″-[^18F]fluoromaltotriose was synthesized from precursor per-O-acetyl-6″-deoxy-6″-nosyl-maltotriose (1). Precursor 1 was prepared from per-O-acetyl-6″-hydroxymaltotriose via a nosylation reaction. This method utilizes the reaction between the leaving group nosylate in precursor 1 and anhydrous [^18F]KF/Kryptofix 2.2.2 in acetonitrile at 85° C. for 15 min to give per-O-acetyl-6″-deoxy-6″-[^18F]fluoromaltotriose (2). Basic hydrolysis of the acetyl protecting groups in 2 yielded 6″-[^18F]fluoromaltotriose (3). Also, cold 6″-fluoromaltotriose (for comparison with 6″ [^18F]fluoromatotriose) was prepared from per-O-acetyl-6-hydroxymaltotriose via a DAST reaction followed by a basic hydrolysis. Escherichia-coli uptake of 6″-[^18F]fluoromaltotriose was evaluated in bacterial culture.
We have successfully synthesized 6″-[^18F]fluoromaltotriose in 4-7% radiochemical yield (decay corrected) with 95% chemical and radio-chemical purities. Total synthesis time was 125 min. […] This observation is consistent with 6″-[^18F]fluoromaltotriose being recognized and transported by the bacteria in a manner similar to maltose.

[2] = Biodistribution and pharmacokinetics in mice; type: in vivo; details: FIG. 3.1
Source text: FIG. 3.1 illustrates a graph comparing the biodistribution and pharmacokinetics of 6-fluoromaltose and 6″-fluoromaltotriose in mice.
FIG. 3.1, example 3, illustrates a graph comparing the biodistribution and pharmacokinetics of 6-fluoromaltose and 6″-Fluoromaltotriose in mice.

E. coli [3] = assay: PET/CT imaging of E. coli infection in thigh muscle of nude mice; type: in vivo; details: for route of clearance: mice, intravenous (tail vein)
Protocol: FIGS. 1.1A-B show PET/CT scan of a mouse that had been injected with 200 μCi of 6″-[^18F]-fluoromaltotriose. The arrow indicates the site of infection.
6″-[^18F]-fluoromaltotriose (FIG. 1.1B) was synthesized. The uptake of 6″-[^18F]-fluoromaltotriose was evaluated in E. coli. […] The uptake in E. coli could also be blocked by a co-incubation with 1 mM of cold maltose (98% blocking, p<0.0003), the natural substrate of the transporter, confirming that the tracer was a substrate of the bacterial maltose transporter. 10^8 colony-forming units (CFU) of E. coli was then inoculated in the right thigh muscle of nude mice (n=4). […] The route of clearance of the tracer is renal which makes it suitable for clinical translation.

[4] = listed as 6″-[^18F]fluoromaltotriose

With OC[C@H]1O[C@H](O[C@H]2[C@H](O)[C@@H](O)C(O)O[C@@H]2CO)[C@H](O)[C@@H](O)[C@@H]1O[C@H]1O[C@H](C[18F])[C@@H](O)[C@H](O)[C@H]1O (some centres unmarked) [6″-[^18F]-fluoromaltotriose, 6″-[^18F]fluoromaltotriose] the “blocking of uptake in E. coli by co-incubation with cold maltose” value (E. coli [1]) was 98%, the “blocking of uptake in E. coli by co-incubation with cold maltose” value (E. coli [1]; [4]) was 90% and the “accumulation (uptake) of tracer in E. coli over time” value (E. coli [1]) was “increased over time”. The “accumulation (uptake) of tracer in E. coli over time” value (E. coli [1]; listed as 6″-[^19F]fluoromaltotriose) was “time dependent”, the “tissue uptake as compared to first generation tracer 6-fluoromaltose” value [2] was “reduced blood, heart, liver, lung and muscle uptake” and the “imaging of viable bacteria” value (E. coli [3]; 2 hours after implantation (FIG. 1.2)) was “can image 10^8 CFU of viable bacteria”. The “accumulation of tracer at the site of infection (PET/CT image)” value (E. coli [3]; PET/CT image at 1 hour, 24 h after inoculation) was “clearly accumulated in the infected leg”, the “uptake in infected muscle relative to contra-lateral muscle” value (E. coli [3]; ROI analysis, PET/CT, p<0.05) was 3.1 fold and the route of clearance (E. coli [3]) was “renal”. The route of clearance (E. coli [3]; [4]) was “predominantly renal clearance” and the “average uptake in infected muscle (ROI analysis)” value (E. coli [3]; nude mice, 10^8 CFU E. coli in right thigh muscle, 24 h later 200 uCi via tail vein, PET/CT at 1 hour, mean±SD) was 4.7±1.3 % ID/g.
